Measurements as given in patent US11738082B2, “High concentration protein formulations with reduced viscosity” (Bhami's Research Laboratory, Pvt. Ltd., priority 2017, dated 2023).
Counter-ions that a name gives are not always drawn.

Tested on: Human Gamma Globulin (HGG), GLOBUCEL®
Assay: Viscosity of aqueous solutions of Human Gamma Globulin (Cambridge VISCOlab5000 or DV2T cone and plate viscometer)
[1] = HGG […], excipient 5%, 25 mM citrate buffer pH 6.0
[2] = HGG 220 mg/mL, excipient 10 mg/mL, histidine buffer pH 6.0, 25° C.
[3] = HGG 220 mg/mL, excipient 10 mg/mL, phosphate buffer pH 6.0, 25° C.

Procedure: Commercially obtained human gamma globulin (HGG), GLOBUCEL® (50 mg/mL) containing pharmaceutical excipients (Maltose) was dialyzed against water for 24 hr at 4° C. with three changes. To the aqueous solution of HGG, either histidine or phosphate or citrate buffer was added from the stock concentration of 1000 mM for histidine buffer or 1000 mM for citrate buffer or 1000 mM for phosphate buffer, pH 6.0 to get a final concentration of 25 mM each. The HGG solutions in various buffers were concentrated to a final volume of less than 150 μL using Vivaspin centrifugal concentrators (Sartorius). The collected protein sample was stored at 4° C. […] The protein concentrations were experimentally determined using the extinction coefficient of 1.4
[formula] at 280 nm. The viscosities of the solution were measured either using a Cambridge Viscometer, VISCOlab5000 using 70 μL of sample at 25° C. or using a DV2T cone and plate viscometer using 1.5 mL of sample at 25° C. at extrapolated zero shear rate.
Commercially obtained human gamma globulin (HGG), GLOBUCEL® (50 mg/mL) containing pharmaceutical excipients (Maltose) was dialyzed against water for 24 hr at 4° C. with three changes. To the aqueous solution of HGG, either citrate-phosphate buffer pH 5.0 or citrate-phosphate buffer pH 6.0 or citrate-phosphate buffer pH 7.0 was added from the stock concentration of 1000 mM for citrate buffer at pH 5.0 or pH 6.0 or pH 7.0 to get a final concentration of 25 mM each. The HGG solutions in various pH buffers were concentrated to a final volume of less than 150 μL using Vivaspin centrifugal concentrators (Sartorius). The collected protein sample was stored at 4° C. […] The protein concentrations were experimentally determined using the extinction coefficient of 1.4
Commercially obtained human gamma globulin (HGG), GLOBUCEL® (50 mg/mL) containing pharmaceutical excipients (Maltose) was dialyzed against water for 24 hr at 4° C. with three changes. To the aqueous solution of HGG, phosphate/citrate/histidine Buffer was added from the stock concentration of 1000 mM phosphate/citrate/histidine buffer, pH 6.0 to get a final concentration of 25 mM. To the buffered HGG different amino acid or its derivative was added individually and mixed until complete dissolution. The excipient containing HGG was concentrated to a final volume of less than 150 μL using Vivaspin centrifugal concentrators (Sartorius). The collected protein sample was stored at 4° C. […] The protein concentrations were experimentally determined using the extinction coefficient of 1.4
Commercially obtained human gamma globulin (HGG), GLOBUCEL® (50 mg/mL) containing pharmaceutical excipients (Maltose) was dialyzed against water for 24 hr at 4° C. with three changes. To the aqueous solution of HGG, phosphate/citrate/histidine Buffer was added from the stock concentration of 1000 mM phosphate/citrate/histidine buffer, pH 6.0 to get a final concentration of 25 mM. To the buffered HGG, different nucleosides or nucleotides or its derivative was added individually and mixed until complete dissolution. The excipient containing HGG was concentrated to a final volume of less than 150 μL using Vivaspin centrifugal concentrators (Sartorius). The collected protein sample was stored at 4° C.

CCO [Ethanol]
Viscosity (cP) @ 25° C. (HGG 182 mg/mL, excipient 5%, 25 mM phosphate buffer pH 6.0): 53 cP
Viscosity (cP) @ 25° C. [1]: 5 cP

OC[C@H]1O[C@@](CO)(O[C@H]2O[C@H](CO)[C@@H](O)[C@H](O)[C@H]2O)[C@@H](O)[C@@H]1O [Sucrose]
Viscosity (cP) @ 25° C. (HGG 192 mg/mL, excipient 20 mg/mL (58 mM), 25 mM citrate buffer pH 6.0): 76 cP
Viscosity (cP) @ 25° C. (HGG 204 mg/mL, excipient 20 mg/mL (58 mM), 25 mM phosphate buffer pH 6.0): 190 cP

O=C(O)c1cccnc1 [Nicotinic acid (acid form)]
Viscosity, cP (HGG 220 mg/mL, excipient 10 mg/mL, citrate buffer pH 6.0, 25° C.): 20 cP
Viscosity, cP [2]: 18 cP
Viscosity, cP [3]: 20 cP
Viscosity (cP) @ 25° C. (HGG 231 mg/mL, excipient 10 mg/mL (81 mM), 25 mM histidine buffer pH 6.0): 23 cP
Viscosity (cP) @ 25° C. (HGG 246 mg/mL, excipient 10 mg/mL (81 mM), 25 mM citrate buffer pH 6.0): 48 cP
Viscosity (cP) @ 25° C. (HGG 250 mg/mL, excipient 10 mg/mL (81 mM), 25 mM phosphate buffer pH 6.0): 30 cP
Viscosity, cP (HGG 260 mg/mL, nicotinic acid (acid form) 1 mg/mL, 25 mM histidine buffer pH 6.0, 25° C.): 85 cP
Viscosity, cP (HGG 260 mg/mL, nicotinic acid (acid form) 5 mg/mL, 25 mM histidine buffer pH 6.0, 25° C.): 68 cP
Viscosity, cP (HGG 260 mg/mL, nicotinic acid (acid form) 10 mg/mL, 25 mM histidine buffer pH 6.0, 25° C.): 52 cP
Viscosity, cP (HGG 260 mg/mL, nicotinic acid (acid form) 15 mg/mL, 25 mM histidine buffer pH 6.0, 25° C.): 41 cP
Viscosity, cP (HGG 274 mg/mL, in the presence of nicotinic acid (acid form), 25 mM histidine buffer pH 6.0, 20° C.): 63 cP
Viscosity, cP (HGG 274 mg/mL, in the presence of nicotinic acid (acid form), 25 mM histidine buffer pH 6.0, 25° C.): 41 cP
Viscosity, cP (HGG 274 mg/mL, in the presence of nicotinic acid (acid form), 25 mM histidine buffer pH 6.0, 30° C.): 35 cP
Viscosity (cP) @ 25° C. (HGG 277 mg/mL, excipient 10 mg/mL (81 mM), 25 mM citrate buffer pH 6.0): 123 cP
Viscosity (cP) @ 25° C. (HGG 342 mg/mL, excipient 10 mg/mL (81 mM), 25 mM histidine buffer pH 6.0): 178 cP

N[C@@H](CO)C(=O)O [Serine]
Viscosity (cP) @ 25° C. (HGG 238 mg/mL, excipient 10 mg/mL (95 mM), 25 mM phosphate buffer pH 6.0): 135 cP

Cc1cn([C@H]2C[C@H](O)[C@@H](CO)O2)c(=O)[nH]c1=O [Thymidine]
Viscosity (cP) @ 25° C. (HGG 161 mg/mL, excipient 10 mg/mL (41 mM), 25 mM phosphate buffer pH 6.0): 60 cP

OC[C@@H](O)[C@@H](O)[C@H](O)[C@@H](O)CO [D-sorbitol]
Viscosity (cP) @ 25° C. (HGG 182 mg/mL, excipient 10 mg/mL (56 mM), 25 mM citrate buffer pH 6.0): 45 cP
Viscosity (cP) @ 25° C. (HGG 240 mg/mL, excipient 10 mg/mL (56 mM), 25 mM phosphate buffer pH 6.0): 176 cP

Nc1ncccn1 [2-Aminopyrimidine]
Viscosity (cP) @ 25° C. (HGG 120 mg/mL, excipient 10 mg/mL (105 mM), 25 mM phosphate buffer pH 6.0): 87 cP

CC(=O)[O-].[Na+] [Sodium Acetate]
Viscosity (cP) @ 25° C. (HGG 174 mg/mL, excipient […] (100 mM), 25 mM phosphate buffer pH 6.0): 19 cP

Cc1ncc(C[n+]2csc(CCO)c2C)c(N)n1 [Thiamine-HCl]
Viscosity (cP) @ 25° C. (HGG 179 mg/mL, excipient 10 mg/mL (30 mM), 25 mM phosphate buffer pH 6.0): 24 cP
Viscosity (cP) @ 25° C. (HGG 200 mg/mL, excipient 10 mg/mL (30 mM), 25 mM histidine buffer pH 6.0): 29 cP
Viscosity (cP) @ 25° C. (HGG 200 mg/mL, excipient 27.3 mg/mL (81 mM), 25 mM phosphate buffer pH 6.0): 34 cP
Viscosity, cP [2]: 95 cP
Viscosity, cP [3]: 65 cP
Viscosity (cP) @ 25° C. (HGG 246 mg/mL, excipient 27.3 mg/mL (81 mM), 25 mM phosphate buffer pH 6.0): 91 cP
Viscosity (cP) @ 25° C. (HGG 248 mg/mL, excipient 10 mg/mL (30 mM), 25 mM phosphate buffer pH 6.0): 92 cP
Viscosity (cP) @ 25° C. (HGG 294 mg/mL, excipient 10 mg/mL (30 mM), 25 mM citrate buffer pH 6.0): 185 cP

O=C[C@@H](O)[C@H](O)[C@H](O)CO [Arabinose]
Viscosity (cP) @ 25° C. (HGG 186 mg/mL, excipient 10 mg/mL (67 mM), 25 mM citrate buffer pH 6.0): 65 cP

Nc1ccn([C@@H]2O[C@H](CO)[C@@H](O)[C@H]2O)c(=O)n1 [Cytidine]
Viscosity (cP) @ 25° C. (HGG 218 mg/mL, excipient 10 mg/mL (41 mM), 25 mM phosphate buffer pH 6.0): 203 cP

Polysorbate 80
Viscosity (cP) @ 25° C. (HGG 228 mg/mL, excipient 0.07%, 25 mM citrate buffer pH 6.0): 78 cP
Viscosity (cP) @ 25° C. (HGG 241 mg/mL, excipient 0.07%, 25 mM phosphate buffer pH 6.0): 84 cP

OC[C@@H](O)[C@@H](O)[C@H](O)[C@H](O)CO [Mannitol]
Viscosity (cP) @ 25° C. (HGG […], excipient 10 mg/mL (55 mM), 25 mM citrate buffer pH 6.0): 65 cP

N=C(N)NCCCC[C@H](N)C(=O)O [Homoarginine]
Viscosity (cP) @ 25° C. (HGG 188 mg/mL, excipient 10 mg/mL (45 mM), 25 mM phosphate buffer pH 6.0): 28 cP

O=c1ccn([C@@H]2O[C@H](CO)[C@@H](O)[C@H]2O)c(=O)[nH]1 [Uridine]
Viscosity (cP) @ 25° C. (HGG 203 mg/mL, excipient 10 mg/mL (41 mM), 25 mM phosphate buffer pH 6.0): 28 cP

Cl.NCCc1ccc(O)cc1 [Tyramine-HCl]
Viscosity (cP) @ 25° C. (HGG 215 mg/mL, excipient 10 mg/mL (58 mM), 25 mM phosphate buffer pH 6.0): 145 cP

C[S+](C)[O-] [DMSO]
Viscosity (cP) @ 25° C. (HGG 204 mg/mL, excipient 5%, 25 mM phosphate buffer pH 6.0): 121 cP
Viscosity (cP) @ 25° C. [1]: 28 cP

CC(=O)Oc1ccccc1C(=O)O [Acetyl salicylic acid, reference compound]
Viscosity (cP) @ 25° C. (HGG 283 mg/mL, excipient 2.5 mg/mL (14 mM), 25 mM histidine buffer pH 6.0): 43 cP

N[C@@H](Cc1c[nH]c2ccccc12)C(=O)O [Tryptophan]
Viscosity (cP) @ 25° C. (HGG 200 mg/mL, excipient 6 mg/mL (29 mM), 25 mM phosphate buffer pH 6.0): 14 cP
Viscosity (cP) @ 25° C. (HGG 231 mg/mL, excipient 6 mg/mL (29 mM), 25 mM citrate buffer pH 6.0): 60 cP
Viscosity (cP) @ 25° C. (HGG 243 mg/mL, excipient 6 mg/mL (29 mM), 25 mM phosphate buffer pH 6.0): 35 cP
Viscosity (cP) @ 25° C. (HGG 256 mg/mL, excipient 6 mg/mL (29 mM), 25 mM histidine buffer pH 6.0): 18 cP

OC[C@H]1O[C@H](O[C@H]2O[C@H](CO)[C@@H](O)[C@H](O)[C@H]2O)[C@H](O)[C@@H](O)[C@@H]1O [Trehalose dihydrate]
Viscosity (cP) @ 25° C. (HGG 217 mg/mL, excipient 20 mg/mL (53 mM), 25 mM citrate buffer pH 6.0): 87 cP
Viscosity (cP) @ 25° C. (HGG 246 mg/mL, excipient 20 mg/mL (53 mM), 25 mM phosphate buffer pH 6.0): 54 cP

L-Pantothenic Acid hemicalcium salt
Viscosity (cP) @ 25° C. (HGG 182 mg/mL, excipient 10 mg/mL (42 mM), 25 mM phosphate buffer pH 6.0): 14 cP

O=C(O)[C@@H]1CCCN1 [Proline]
Viscosity (cP) @ 25° C. (HGG […], excipient 10 mg/mL (87 mM), 25 mM citrate buffer pH 6.0): 55 cP
Viscosity (cP) @ 25° C. (HGG […], excipient 10 mg/mL (87 mM), 25 mM phosphate buffer pH 6.0): 68 cP

CSCC[C@H](N)C(=O)O [Methionine]
Viscosity (cP) @ 25° C. (HGG 228 mg/mL, excipient 10 mg/mL (67 mM), 25 mM phosphate buffer pH 6.0): 170 cP

NCCCC[C@H](N)C(=O)O [Lysine]
Viscosity (cP) @ 25° C. (HGG 267 mg/mL, excipient 10 mg/mL (55 mM), 25 mM phosphate buffer pH 6.0): 199 cP

CC(=O)[O-].[K+] [Potassium acetate]
Viscosity (cP) @ 25° C. (HGG 228 mg/mL, excipient 40 mg/mL (408 mM), 25 mM phosphate buffer pH 6.0): 172 cP

O=C1O[C@H]([C@@H](O)CO)C(O)=C1O [L-Ascorbic acid]
Viscosity (cP) @ 25° C. (HGG 214 mg/mL, excipient 10 mg/mL (57 mM), 25 mM phosphate buffer pH 6.0): 59 cP

O=C(CO)[C@@H](O)[C@H](O)[C@H](O)CO [Fructose]
Viscosity (cP) @ 25° C. (HGG […], excipient 10 mg/mL (56 mM), 25 mM citrate buffer pH 6.0): 69 cP

C[C@H](N)C(=O)O [Alanine]
Viscosity (cP) @ 25° C. (HGG 222 mg/mL, excipient 10 mg/mL (112 mM), 25 mM phosphate buffer pH 6.0): 112 cP
